{"source": "patent US6518261B2", "about": "“Use of eugenol in combination with other chemopreventative agents as prophylaxis for cancers” (Oncology Sciences Corporation, priority 2000, dated 2003)", "key": {"LNCaP cells": {"system": "LNCaP cells", "experiment": "Cell growth by trypan blue exclusion cell counting, confirmed by cell proliferation assay kit", "format": "cell-based, human", "details": "72 hours of treatment, FIG. 2", "protocol": "These cells were treated with different concentrations of eugenol (0.5, 1, 3, 5 and 10 mM). Cell growth was monitored every 24 hours by counting the increase in the cell number using trypan blue exclusion assay.\nCells were treated with either eugenol (0.25, 0.5, 0.75 or 1 mM) or 2-ME (0.5, 1, 2 or 3 mM) or both (0.25, 0.5, 0.75 or 1 mM of eugenol along with 0.5 mM of 2-ME). Cell growth was measured following 72 hours of treatment as described above."}, "suspect cells": {"system": "suspect cells", "experiment": "Cell cycle analysis", "format": "cell-based", "details": "cell cycle analysis data", "excerpt": "Therefore induction of cell death pathway by 2-ME and growth inhibition by eugenol through a different pathway presents a tremendous new weapon for use in preventing and combating cancer."}}, "data": [{"smiles": "COc1cc2c(cc1O)CC[C@@H]1[C@@H]2CC[C@]2(C)[C@@H](O)CC[C@@H]12", "note": "[2-ME, 2-methoxyestradiol]", "values": [{"measurement": "inhibition of growth of LNCaP cells", "setting": "LNCaP cells; 0.5 mM of 2-ME", "value": "about 20%"}, {"measurement": "effect on cell cycle profile / mechanism of growth inhibition", "setting": "suspect cells", "value": "inducing apoptosis and blocking cells in G2/M phase"}]}, {"smiles": "C=CCc1ccc(O)c(OC)c1", "note": "[eugenol]", "values": [{"measurement": "inhibition of growth of LNCaP cells", "setting": "LNCaP cells; 0.25 mM of eugenol", "value": "about 30%"}, {"measurement": "effect on cell cycle profile / mechanism of growth inhibition", "setting": "suspect cells", "value": "without any significant alterations in the cells cycle profile"}]}]}
